{"source": "patent US9493512B2", "about": "“Solution phase processes for the manufacture of macrocyclic depsipeptides and new intermediates” (NOVARTIS AG, priority 2012, dated 2016)", "origin": "cited, not measured here", "target": "chymotrypsin (Bos taurus, UniProt P00766)", "conditions": "see J. Nat. Prod. 68(9), 1324-7 (2005); read-out: IC50 value, inhibition of chymotrypsin", "data": [{"smiles": "CC(=O)N[C@@H](CCC(N)=O)C(=O)N[C@@H]1C(=O)N[C@@H](CC(C)C)C(=O)N[C@H]2CC[C@@H](O)N(C2=O)[C@@H](Cc2ccccc2)C(=O)N(C)[C@@H](Cc2ccc(O)cc2)C(=O)N[C@@H](C(C)C)C(=O)O[C@@H]1C", "note": "[Nostopeptin (BN920)]", "values": [{"measurement": "IC50", "result": 31, "unit": "nM"}]}]}
